The values that follow are results of earlier work, collected in patent US11896701B2, “Method for dyeing keratin material, comprising the use of an organic C1-C6 alkoxy silane and tannic acid” (Henkel AG & Co. KGaA, priority 2019, dated 2024).

The conditions of the data set: 25° C.

Values after ≈ are worked out from the molar mass of the structure shown.

On to `O=S(=O)(O)c1ccc(N=Nc2c(O)ccc3ccccc23)cc1` [Acid Orange 7, 4-[(2-hydroxy-1-naphthyl)azo]benzenesulfonate], for which the solubility in water entry is reported as “more than 7 g/L”.

As for `Nc1cc(S(=O)(=O)O)cc2cc(S(=O)(=O)O)c(N=Nc3ccccc3)c(O)c12` [Acid Red 33, 5-amino-4-hydroxy-3-(phenylazo)-naphthalene-2,7-disulphonate], the solubility in water was 2500 µg/mL (≈ 5.9 mM).

`O=[N+]([O-])c1cc([N+](=O)[O-])c2ccc(S(=O)(=O)O)cc2c1O` [Acid Yellow 9, 8-hydroxy-5,7-dinitro-2-naphthalenesulfonic acid]: the solubility in water result is recorded as “above 40 g/L”.

In the case of `O=C(O)C1=NN(c2ccc(S(=O)(=O)O)cc2)C(=O)C1N=Nc1ccc(S(=O)(=O)O)cc1` (stereo not shown) [Acid Yellow 23, 4,5-dihydro-5-oxo-1-(4-sulfophenyl)-4-((4-sulfophenyl)azo)-1H-pyrazole-3-carboxylic acid], the “solubility in water (in words)” value is recorded as “readily soluble in water”.
